Measured values: PubChem BioAssay (NCI)
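In this assay, cells in 96-well plates receive the compound at five concentrations for 48 hours. Endpoints are linearly interpolated between the surrounding concentrations. GI50 marks 50% less growth. TGI: concentration producing complete growth inhibition.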

Assays:
Assay in all cases: inhibition of tumour cell growth, NCI panel, 48 h
SNB-75 CNS = tested on: SNB-75 CNS
MOLT-4 leukemia = tested on: MOLT-4 leukemia
NCI-H23 lung = tested on: NCI-H23 lung
OVCAR-5 ovarian = tested on: OVCAR-5 ovarian
HOP-62 NSCLC = tested on: HOP-62 NSCLC
SW-620 colon = tested on: SW-620 colon
SK-MEL-2 melanoma = tested on: SK-MEL-2 melanoma
BT-549 breast = tested on: BT-549 breast
RXF 393 renal = tested on: RXF 393 renal
A498 renal = tested on: A498 renal
U251 CNS = tested on: U251 CNS
UO-31 renal = tested on: UO-31 renal
NCI-H460 lung = tested on: NCI-H460 lung
HCT-116 colon = tested on: HCT-116 colon
NCI/ADR-RES ovarian = tested on: NCI/ADR-RES ovarian
OVCAR-4 ovarian = tested on: OVCAR-4 ovarian
A549 NSCLC = tested on: A549 NSCLC
EKVX NSCLC = tested on: EKVX NSCLC
SNB-19 CNS = tested on: SNB-19 CNS
MALME-3M melanoma = tested on: MALME-3M melanoma
T-47D breast = tested on: T-47D breast
MCF7 breast = tested on: MCF7 breast
PC-3 prostate = tested on: PC-3 prostate
NCI-H226 lung = tested on: NCI-H226 lung
K-562 leukemia = tested on: K-562 leukemia
HS 578T breast = tested on: HS 578T breast
HCT-15 colon = tested on: HCT-15 colon
NCI-H522 lung = tested on: NCI-H522 lung
SK-MEL-5 melanoma = tested on: SK-MEL-5 melanoma
SF-539 CNS = tested on: SF-539 CNS
COLO 205 colon = tested on: COLO 205 colon
KM12 colon = tested on: KM12 colon
HL-60(TB) leukemia = tested on: HL-60(TB) leukemia
SF-295 CNS = tested on: SF-295 CNS
SR leukemia = tested on: SR leukemia
SK-OV-3 ovarian = tested on: SK-OV-3 ovarian
HOP-92 NSCLC = tested on: HOP-92 NSCLC
LOX IMVI melanoma = tested on: LOX IMVI melanoma
786-0 renal = tested on: 786-0 renal
UACC-62 melanoma = tested on: UACC-62 melanoma
M14 melanoma = tested on: M14 melanoma
MDA-MB-468 breast = tested on: MDA-MB-468 breast
SF-268 CNS = tested on: SF-268 CNS
SK-MEL-28 melanoma = tested on: SK-MEL-28 melanoma
RPMI-8226 leukemia = tested on: RPMI-8226 leukemia
DU-145 prostate = tested on: DU-145 prostate
HT29 colon = tested on: HT29 colon
OVCAR-8 ovarian = tested on: OVCAR-8 ovarian
CAKI-1 renal = tested on: CAKI-1 renal
TK-10 renal = tested on: TK-10 renal
IGROV1 ovarian = tested on: IGROV1 ovarian
MDA-MB-231 breast = tested on: MDA-MB-231 breast
CCRF-CEM leukemia = tested on: CCRF-CEM leukemia
SN12C renal = tested on: SN12C renal
ACHN renal = tested on: ACHN renal
HCC-2998 colon = tested on: HCC-2998 colon
UACC-257 melanoma = tested on: UACC-257 melanoma

**Q.** Which GI50 (SNB-75 CNS) does the source give for `N#Cc1ccc(/C=N/NC(=O)c2[nH]c3ccc(Br)cc3c2-c2ccccc2)o1` here?
**A.** 369 nM

**Q.** And the TGI (SNB-75 CNS)?
**A.** 14.6 µM

**Q.** And the GI50 (MOLT-4 leukemia)?
**A.** 352 nM

**Q.** What about the TGI (MOLT-4 leukemia) of the same compound?
**A.** 32.7 µM

**Q.** And the GI50 (NCI-H23 lung)?
**A.** 338 nM

**Q.** And the TGI (NCI-H23 lung)?
**A.** 14 µM

**Q.** And the GI50 (OVCAR-5 ovarian)?
**A.** 406 nM

**Q.** And the TGI (OVCAR-5 ovarian)?
**A.** 21.1 µM

**Q.** What about the GI50 (HOP-62 NSCLC) of the same compound?
**A.** 350 nM

**Q.** What about the TGI (HOP-62 NSCLC) of the same compound?
**A.** 13.5 µM

**Q.** What about the GI50 (SW-620 colon) of the same compound?
**A.** 421 nM

**Q.** What about the TGI (SW-620 colon) of the same compound?
**A.** 20.1 µM

**Q.** And the GI50 (SK-MEL-2 melanoma)?
**A.** 294 nM

**Q.** And the TGI (SK-MEL-2 melanoma)?
**A.** 13.5 µM

**Q.** What about the GI50 (BT-549 breast) of the same compound?
**A.** 243 nM

**Q.** What about the TGI (BT-549 breast) of the same compound?
**A.** 3.22 µM

**Q.** And the GI50 (RXF 393 renal)?
**A.** 486 nM

**Q.** What about the TGI (RXF 393 renal) of the same compound?
**A.** 14.7 µM

**Q.** And the GI50 (A498 renal)?
**A.** 15.6 µM

**Q.** What about the TGI (A498 renal) of the same compound?
**A.** 42.3 µM

**Q.** And the GI50 (U251 CNS)?
**A.** 330 nM

**Q.** And the TGI (U251 CNS)?
**A.** 12.3 µM

**Q.** And the GI50 (UO-31 renal)?
**A.** 454 nM

**Q.** What about the TGI (UO-31 renal) of the same compound?
**A.** 15.4 µM

**Q.** What about the GI50 (NCI-H460 lung) of the same compound?
**A.** 347 nM

**Q.** And the TGI (NCI-H460 lung)?
**A.** 10.7 µM

**Q.** What about the GI50 (HCT-116 colon) of the same compound?
**A.** 198 nM

**Q.** What about the TGI (HCT-116 colon) of the same compound?
**A.** 11.7 µM

**Q.** What about the GI50 (NCI/ADR-RES ovarian) of the same compound?
**A.** 136 nM

**Q.** And the TGI (NCI/ADR-RES ovarian)?
**A.** 408 nM

**Q.** And the GI50 (OVCAR-4 ovarian)?
**A.** 1100 nM

**Q.** And the TGI (OVCAR-4 ovarian)?
**A.** 25.3 µM

**Q.** What about the GI50 (A549 NSCLC) of the same compound?
**A.** 383 nM

**Q.** What about the TGI (A549 NSCLC) of the same compound?
**A.** 14 µM

**Q.** What about the GI50 (EKVX NSCLC) of the same compound?
**A.** 496 nM

**Q.** What about the TGI (EKVX NSCLC) of the same compound?
**A.** 27.3 µM

**Q.** And the GI50 (SNB-19 CNS)?
**A.** 394 nM

**Q.** And the TGI (SNB-19 CNS)?
**A.** 17 µM

**Q.** What about the GI50 (MALME-3M melanoma) of the same compound?
**A.** 434 nM

**Q.** And the TGI (MALME-3M melanoma)?
**A.** 22.2 µM

**Q.** And the GI50 (T-47D breast)?
**A.** 4.66 µM

**Q.** And the TGI (T-47D breast)?
**A.** 32.9 µM

**Q.** And the GI50 (MCF7 breast)?
**A.** 306 nM

**Q.** And the TGI (MCF7 breast)?
**A.** 16.7 µM

**Q.** And the GI50 (PC-3 prostate)?
**A.** 482 nM

**Q.** What about the TGI (PC-3 prostate) of the same compound?
**A.** 19.7 µM

**Q.** What about the GI50 (NCI-H226 lung) of the same compound?
**A.** 1110 nM

**Q.** And the TGI (NCI-H226 lung)?
**A.** 27.5 µM

**Q.** And the GI50 (K-562 leukemia)?
**A.** 128 nM

**Q.** What about the TGI (K-562 leukemia) of the same compound?
**A.** 15 µM

**Q.** And the GI50 (HS 578T breast)?
**A.** 313 nM

**Q.** What about the TGI (HS 578T breast) of the same compound?
**A.** 20.1 µM

**Q.** And the GI50 (HCT-15 colon)?
**A.** 333 nM

**Q.** What about the TGI (HCT-15 colon) of the same compound?
**A.** 13.7 µM

**Q.** And the GI50 (NCI-H522 lung)?
**A.** 91.4 nM

**Q.** What about the TGI (NCI-H522 lung) of the same compound?
**A.** 340 nM

**Q.** What about the GI50 (SK-MEL-5 melanoma) of the same compound?
**A.** 272 nM

**Q.** What about the TGI (SK-MEL-5 melanoma) of the same compound?
**A.** 770 nM

**Q.** What about the GI50 (SF-539 CNS) of the same compound?
**A.** 212 nM

**Q.** What about the TGI (SF-539 CNS) of the same compound?
**A.** 527 nM

**Q.** What about the GI50 (COLO 205 colon) of the same compound?
**A.** 198 nM

**Q.** And the TGI (COLO 205 colon)?
**A.** 371 nM

**Q.** And the GI50 (KM12 colon)?
**A.** 315 nM

**Q.** And the TGI (KM12 colon)?
**A.** 11.3 µM

**Q.** What about the GI50 (HL-60(TB) leukemia) of the same compound?
**A.** 196 nM

**Q.** What about the TGI (HL-60(TB) leukemia) of the same compound?
**A.** 2780 nM

**Q.** What about the GI50 (SF-295 CNS) of the same compound?
**A.** 321 nM

**Q.** What about the TGI (SF-295 CNS) of the same compound?
**A.** 13.3 µM

**Q.** And the GI50 (SR leukemia)?
**A.** 152 nM

**Q.** And the GI50 (SK-OV-3 ovarian)?
**A.** 513 nM

**Q.** And the TGI (SK-OV-3 ovarian)?
**A.** 22.5 µM

**Q.** And the GI50 (HOP-92 NSCLC)?
**A.** 2120 nM

**Q.** What about the TGI (HOP-92 NSCLC) of the same compound?
**A.** 18.2 µM

**Q.** And the GI50 (LOX IMVI melanoma)?
**A.** 124 nM

**Q.** And the TGI (LOX IMVI melanoma)?
**A.** 11.6 µM

**Q.** And the GI50 (786-0 renal)?
**A.** 308 nM

**Q.** What about the TGI (786-0 renal) of the same compound?
**A.** 10.1 µM

**Q.** What about the GI50 (UACC-62 melanoma) of the same compound?
**A.** 392 nM

**Q.** And the TGI (UACC-62 melanoma)?
**A.** 17.9 µM

**Q.** And the GI50 (M14 melanoma)?
**A.** 324 nM

**Q.** And the TGI (M14 melanoma)?
**A.** 22.7 µM

**Q.** And the GI50 (MDA-MB-468 breast)?
**A.** 318 nM

**Q.** What about the TGI (MDA-MB-468 breast) of the same compound?
**A.** 14.1 µM

**Q.** What about the GI50 (SF-268 CNS) of the same compound?
**A.** 611 nM

**Q.** And the TGI (SF-268 CNS)?
**A.** 20.3 µM

**Q.** What about the GI50 (SK-MEL-28 melanoma) of the same compound?
**A.** 806 nM

**Q.** What about the TGI (SK-MEL-28 melanoma) of the same compound?
**A.** 21.1 µM

**Q.** What about the GI50 (RPMI-8226 leukemia) of the same compound?
**A.** 369 nM

**Q.** And the TGI (RPMI-8226 leukemia)?
**A.** 27.9 µM

**Q.** And the GI50 (DU-145 prostate)?
**A.** 379 nM

**Q.** What about the TGI (DU-145 prostate) of the same compound?
**A.** 14.8 µM

**Q.** And the GI50 (HT29 colon)?
**A.** 204 nM

**Q.** What about the TGI (HT29 colon) of the same compound?
**A.** 2520 nM

**Q.** What about the GI50 (OVCAR-8 ovarian) of the same compound?
**A.** 226 nM

**Q.** And the TGI (OVCAR-8 ovarian)?
**A.** 624 nM

**Q.** And the GI50 (CAKI-1 renal)?
**A.** 427 nM

**Q.** And the TGI (CAKI-1 renal)?
**A.** 16.2 µM

**Q.** What about the GI50 (TK-10 renal) of the same compound?
**A.** 7.32 µM

**Q.** What about the TGI (TK-10 renal) of the same compound?
**A.** 26.9 µM

**Q.** What about the GI50 (IGROV1 ovarian) of the same compound?
**A.** 404 nM

**Q.** And the TGI (IGROV1 ovarian)?
**A.** 16.6 µM

**Q.** And the GI50 (MDA-MB-231 breast)?
**A.** 246 nM

**Q.** What about the TGI (MDA-MB-231 breast) of the same compound?
**A.** 655 nM

**Q.** What about the GI50 (CCRF-CEM leukemia) of the same compound?
**A.** 295 nM

**Q.** What about the TGI (CCRF-CEM leukemia) of the same compound?
**A.** > 54.5 µM

**Q.** And the GI50 (SN12C renal)?
**A.** 389 nM

**Q.** And the TGI (SN12C renal)?
**A.** 12.6 µM

**Q.** And the GI50 (ACHN renal)?
**A.** 420 nM

**Q.** And the TGI (ACHN renal)?
**A.** 13.4 µM

**Q.** What about the GI50 (HCC-2998 colon) of the same compound?
**A.** 278 nM

**Q.** And the TGI (HCC-2998 colon)?
**A.** 2620 nM

**Q.** And the GI50 (UACC-257 melanoma)?
**A.** 1190 nM

**Q.** What about the TGI (UACC-257 melanoma) of the same compound?
**A.** 19.7 µM
